We go through one substance from patent US20180016289A1, “REDOX-SENSITIVE VESICLES” (THE ROYAL INSTITUTION FOR THE ADVANCEMENT OF …, priority 2015, published 2018).

A short description of the series: Cyclic voltammetry (CV) in acetonitrile. In kind it is physicochemical. The conditions noted are these: 0.1 M TBA-PF6, glassy carbon electrode, 50 mV.s^−1, Ag wire coated with AgCl reference, 1 mM. How it is done: FIG. 6: Cyclic voltammetry (CV) measurements conducted in acetonitrile using 0.1 M of TBA-PF6 as the electrolyte. All the measurements were conducted at a scan rate of 50 mV.s^−1 using a glassy carbon (Ø=3 mm) electrode as a working electrode, Pt wire as a counter electrode and Ag wire coated with AgCl as a reference electrode. (A) Voltammogram of a 1 mM ferroceneacetic acid solution (B) voltammogram of a 1 mM phospholipid 2 solution. (C) Voltammogram of a 1 mM phospholipid 3 solution.
FIG. 14: (A) Synthesis of Fc-DSP (3) from ferroceneacetic acid (1) and DSPE (2) using a detailed reaction and another graphical representation that are used in FIGS. 15-17 (B) CV measurements conducted in acetonitrile using 0.1 M of TBA-PF6 as the electrolyte. All measurements were conducted at a scan rate of 50 mV.s^−1 using a glassy carbon (Ø=3 mm) electrode as a working electrode, Pt wire as a counter electrode and Ag wire coated with AgCl as a reference electrode. (black) Voltammogram of a 1 mM phospholipid 2 solution. (red) Voltammogram of 1 mM phospholipid 3 solution.
Cyclic voltammetry (CV) and scanning electrochemical microscopy (SECM) measurements were performed with an HEKA Electrochemical Probe Scanner 3 or Probe Scanner 1 (HEKA Elektronik Dr. Schulze GmbH, Germany). […]

ferroceneacetic acid [compound 1]: the “reversible oxidation reduction of the ferrocene (potential)” value amounted to 0.42 V.
